Eleven compounds from US8222248B2, “Organic compounds” (Novartis AG, priority 2006, dated 2012) can be followed below.

The first series has as its target T1, human DGAT1 (Homo sapiens, UniProt O75907).
T1 construct: made in house; host or cells: Sf9 cells (membrane preparation)
T1 sequence (O75907 1-488): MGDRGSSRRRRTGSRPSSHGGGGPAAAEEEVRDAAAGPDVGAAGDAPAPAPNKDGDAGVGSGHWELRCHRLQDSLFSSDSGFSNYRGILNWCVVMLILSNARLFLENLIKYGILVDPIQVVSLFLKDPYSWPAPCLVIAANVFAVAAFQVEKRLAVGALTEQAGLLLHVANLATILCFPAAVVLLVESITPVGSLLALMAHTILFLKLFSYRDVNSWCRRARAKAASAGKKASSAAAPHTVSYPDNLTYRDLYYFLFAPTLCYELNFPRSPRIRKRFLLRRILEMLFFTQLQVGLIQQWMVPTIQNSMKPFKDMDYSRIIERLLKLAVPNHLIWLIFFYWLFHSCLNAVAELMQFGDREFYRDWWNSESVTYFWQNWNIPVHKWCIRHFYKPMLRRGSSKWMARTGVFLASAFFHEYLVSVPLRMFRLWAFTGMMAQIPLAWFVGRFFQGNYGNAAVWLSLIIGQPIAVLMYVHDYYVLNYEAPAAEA
In words: DGAT1 enzyme inhibition assay (membrane preparation, LC/MS/MS readout). It counts as biochemical. The settings on record: DGAT1 inhibitory activity, table at end of examples. The protocol:
The enzyme preparation used in this assay is a membrane preparation from Sf9 cells overexpressing human (His)6DGAT1. During all steps samples were chilled to 4° C. Sf9 cells expressing human (His)6DGAT1 were thawed at RT and re-suspended at a 10:1 ratio (mL buffer/g of cells) in 50 mM HEPES, 1× Complete Protease Inhibitor, pH 7.5.
The re-suspended pellet was homogenized for 1 min using a Brinkman PT 10/35 homogenizer with a 20 mm generator. Cells were lysed using Avestin Emulsiflex (chilled to 4° C.) at 10000-15000 psi. Lysate was centrifuged at 100,000×g for 1 h at 4° C. Supernatant was removed and pellets were re-suspended in 50 mM HEPES, 1× Complete Protease Inhibitor, pH 7.5 at ⅙ the volume of supernatant. Re-suspended pellets were pooled and homogenized with 10 strokes of a Glas-Col motor driven teflon pestle on setting 70. The protein concentration of the membrane preparation was quantified using BCA protein assay with 1% SDS. The membrane preparation was aliquoted, frozen on dry ice, and stored at −80° C.
For 50 mL, 25 mL of 0.2 M HEPES stock buffer, 0.5 mL of 1 M MgCl2 ([…]), and 24.5 mL of milli-Q H2O are added to the 55 mL Wheaton Potter-Elvehjem homogenizer. Enzyme preparation (0.1 mL) is added to buffer and the mixture is homogenized with 5 strokes on ice using the Glas-Col variable speed homogenizer system on setting 70.
For 50 mL, 0.5 mL 10 mM diolein is added to 9.5 mL of EtOH in a 50 mL Falcon screw cap conical centrifuge tube. Five mL of 10 mM sodium acetate pH 4.5 is added followed by 0.5 mL of 10 mM oleoyl-CoA. Finally, the remaining 4.5 mL of 10 mM sodium acetate pH 4.5 is added followed by 30 mL of milli-Q H20. The solution should be gently agitated by hand to induce mixing. The final concentrations of EtOH and sodium acetate are 20% and 2 mM, respectively.
Dry compounds are dissolved in the appropriate volume of DMSO to a final concentration of 10 mM. A 10-point, 3-fold dose response is used to evaluate compound potency. All dilutions are performed in DMSO in a Greiner 384-well microplate.
1. 2 μL of compound in DMSO is added to the appropriate wells. 2 μL of DMSO is added to 100% activity and 100% inhibition controls.
2. 25 μL of enzyme mix is added to all wells and plate(s) are incubated for 10 min at RT.
3. 10 μL of 20% acetic acid quench is added to 100% inhibition control wells. Plate(s) are vortexed using Troemner multi-tube vortexer (setting 7 for 10 sec).
4. 25 μL of substrate mix is added to all wells. Plate(s) are vortexed using Troemner multi-tube vortexer (setting 7 for 10 sec). Plate(s) are incubated for 30 min at RT.
5. 10 μL of 20% acetic acid quench is added to all wells. Plate(s) are vortexed using Troemner multi-tube vortexer (setting 7 for 10 sec).
6. 50 μL of 1-butanol w/glyceryl tripalmitoleate internal standard is added to all wells.
7. Plate(s) are sealed with super pierce strong plate sealer using the thermo-sealer.
8. Plate(s) are vortexed using Troemner multi-tube vortexer (setting 10 for 5 min).
9. Plate(s) are centrifuged at 162×g (1000 rpm for GH-3.8 rotor) for 5 min using Beckman GS-6R tabletop centrifuge.
Samples were analyzed by LC/MS/MS using a Waters 1525 μLC and Quattro Micro API MS. Where indicated, tripalmitolein was used as an internal standard to control for instrument variation.
Data is converted to % inhibition prior to curve fitting using the following equation: […]
In the case of `Cc1cccc(C(=O)Nc2ccc3nc(-c4c(Cl)cccc4Cl)[nH]c3c2)c1` [Example 1-11, N-[2-(2,6-Dichloro-phenyl)-3H-benzoimidazol-5-yl]-3-methyl-benzamide], it took 6.9 µM to reach half-maximal inhibition (IC50).
In the case of `O=C(Nc1cccc(Cl)c1)c1ccc2nc(-c3cccc(Cl)c3Cl)[nH]c2c1` [Example 1-124, 2-(2,3-Dichloro-phenyl)-3H-benzoimidazole-5-carboxylic acid (3-chloro-phenyl)-amide], the IC50 (commonly the concentration that gives 50% inhibition) was 0.23 µM.
Regarding `COC(=O)c1ccc(-c2nc3ccc(C(=O)Nc4cccc(Cl)c4)cc3[nH]2)cc1` [Example 1-136, 4-[6-(3-Chloro-phenylcarbamoyl)-1H-benzoimidazol-2-yl]-benzoic acid methyl ester], half-maximal inhibition (IC50) was put at 12 µM. Compared with the last compound, the IC50 is about 52-fold higher.
On the same count and under the same terms, the figure for `Cc1ccccc1CNC(=O)c1ccc2nc(-c3c(Cl)cccc3Cl)oc2c1` [Example 4-15, 2-(2,6-Dichloro-phenyl)-benzooxazole-6-carboxylic acid 2-methyl-benzylamide] is 6.8 µM.

Still in this series, the particulars now being: inhibitory activity to human DGAT1, Table 1, values given as ranges.
For the compound `CC(=O)Nc1ccc2nc(-c3c(Cl)cccc3Cl)[nH]c2c1` [Example 1-6], the IC50 fell in the range of 1 to 30 µM.
As to `CCOc1cccc(CCNC(=O)c2ccc3nc(-c4c(Cl)cccc4Cl)[nH]c3c2)c1` [Example 1-82, 2-(2,6-Dichloro-phenyl)-3H-benzoimidazole-5-carboxylic acid [2-(3-ethoxy-phenyl)-ethyl]-amide], the IC50 is under 1 µM.
The same measure, in the same setting: the figure for `Cc1nc2cc(NC(=O)c3ccc4[nH]c(-c5c(Cl)cccc5Cl)cc4c3)ccc2s1` [Example 3-1, 2-(2,6-dichloro-phenyl)-1H-indole-5-carboxylic acid (2-methyl-benzothiazol-5-yl)-amide] is 1 to 30 µM.
The compound `COc1ccccc1CCNC(=O)c1ccc2nc(-c3c(Cl)cccc3Cl)oc2c1` [Example 4-11, 2-(2,6-Dichloro-phenyl)-benzooxazole-6-carboxylic acid [2-(2-methoxy-phenyl)-ethyl]-amide] gave an IC50 of 30 to 100 µM.

Test system in a further series: not given
Assay: not given
Conditions: not given
With `Cc1ccc(NC(=O)c2ccc3oc(-c4c(C)cc(OCC(=O)N(C)C)cc4C)nc3c2)cc1C` [Example 4-23, 2-(4-Dimethylcarbamoylmethoxy-2,6-dimethylphenyl)-benzooxazole-5-carboxylic acid (3,4-dimethylphenyl)-amide], the melting point (as a rule, the temperature, or range, at which the solid turns liquid) was in the range of 207 to 209 °C.
Take `Cc1ccc(NC(=O)c2ccc3c(c2)C(=O)N(c2c(C)cccc2C)C3=O)cc1C` [Example 7-1, 2-(2,6-Dimethylphenyl)-1,3-dioxo-2,3-dihydro-1H-isoindole-5-carboxylic acid (3,4-dimethylphenyl)-amide]: the melting point fell in the range of 223 to 225 °C.
Same read-out and setting: the figure for `Cc1ccc(NC(=O)c2ccc3c(c2)C(=O)N(c2c(Cl)cccc2Cl)C3=O)cc1C` [Example 7-2, 2-(2,6-Dichlorophenyl)-1,3-dioxo-2,3-dihydro-1H-isoindole-5-carboxylic acid (3,4-dimethylphenyl)-amide] is 238 to 240 °C.
